The structures appear in SMILES notation.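 1) Cells in 96-well plates. 2) Compound, 48 h, 5 concentrations. 3) Linear interpolation between surrounding doses. 4) Unreached endpoint = highest concentration. GI50: concentration for 50% inhibition of growth.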 Activity calls are given as the source filed them. No stated cut-off is given here; in the data, active = GI50 up to about 1.1 µM and inactive = higher. Where only a bound is given, the exact number is not on record here.

The source of these data is ChEMBL document CHEMBL1201862, “PubChem BioAssay data set” (2004).

Some test systems named below: UO-31; UACC-257; A498; HT-29; NCI-H23; IGROV-1; HCT-116; COLO 205; NCI-H522; SK-MEL-28; SK-OV-3; HOP-62; OVCAR-8; OVCAR-4; HCT-15; HL-60; Malme-3M; ACHN; HCC 2998.
Common to all, as to assay: NCI anticancer screen, dose series, 48 h

Consider `Nc1ccc(C(=O)NN2C(=O)C(Cl)C2c2ccc(O)cc2)cc1` (centres undefined), for which the GI50 in the test with UO-31 is 23.3 µM (inactive); in the test with UACC-257, 36.1 µM (inactive); in the test on A498, 36 µM (inactive); in the test on HT-29 it was 24.7 µM (inactive); in the test on NCI-H23, 17.9 µM (inactive); in the test with IGROV-1 it was 17.8 µM (inactive). The GI50 in the test with HCT-116 was 19.2 µM (inactive); in the test on COLO 205, 18.8 µM (inactive); in the test on NCI-H522, 11.6 µM (inactive); in the test with SK-MEL-28 it was 22.1 µM (inactive); in the test with SK-OV-3 it was 22.8 µM (inactive); in the test on HOP-62 it was 21.7 µM (inactive). In addition, the GI50 is 26.5 µM (inactive) in the test on OVCAR-8; 19.1 µM (inactive) with OVCAR-4; 21.4 µM in the test with HCT-15; 15.6 µM (inactive) in the test on HL-60; 18.5 µM (inactive) with Malme-3M; 35.2 µM (inactive) in the test with ACHN.
As for `CC(=O)C(CN(C(C)C)C(C)C)C(c1ccccc1)c1c(O)c2ccccc2oc1=O` (centres undefined), the GI50 in the test on UO-31, with UACC-257, with A498, with HT-29, in the test on NCI-H23 and in the test on IGROV-1 was > 100 µM (inactive) in each case. For the same compound, the GI50 in the test with HCT-116, in the test with COLO 205, with NCI-H522, in the test on SK-MEL-28, in the test with SK-OV-3 and in the test with HOP-62 was > 100 µM (inactive) throughout. In addition, the GI50 in the test on OVCAR-8 was > 100 µM (inactive); with OVCAR-4, > 100 µM (inactive); with HCT-15, greater than 100 µM; in the test with HL-60, > 100 µM (inactive); with Malme-3M, > 100 µM (inactive); in the test with ACHN it was > 100 µM (inactive).
Take `COc1ccc(CCNCc2cccc(OC)c2OC)cc1OC`: the GI50 in the test on UO-31 was > 100 µM (inactive); in the test with UACC-257, > 100 µM (inactive); in the test on HT-29, 88.7 µM (inactive); in the test on NCI-H23, > 100 µM (inactive); in the test with IGROV-1, > 100 µM (inactive); in the test with COLO 205 it was > 100 µM (inactive). Also, the GI50 in the test on NCI-H522, in the test with HCC 2998, with SK-MEL-28, in the test on SK-OV-3, in the test with HOP-62 and in the test on OVCAR-8 was > 100 µM (inactive) in each case. Further, the GI50 in the test on OVCAR-4 was > 100 µM (inactive); in the test on HCT-15 it was greater than 100 µM; in the test on HL-60, > 100 µM (inactive); in the test on Malme-3M, > 100 µM (inactive); in the test on ACHN it was > 100 µM (inactive).
Turning to `N#Cc1c(-c2ccccc2)cc(Nc2cccc(C(F)(F)F)c2)n2c1nc1ccccc12`, the GI50 is 0.733 µM (active) in the test with UACC-257; 1.64 µM (inactive) in the test with A498; 1.16 µM (inactive) in the test with HT-29; 0.336 µM (active) with NCI-H23; 0.471 µM (active) in the test on HCT-116; 1.04 µM (active) with COLO 205. The GI50 in the test on NCI-H522 was 0.245 µM (active); in the test on SK-MEL-28, 9.12 µM (inactive); in the test with SK-OV-3, 1.11 µM (active); with HOP-62 it was 1.77 µM (inactive); with OVCAR-8 it was 1.01 µM (active); in the test on OVCAR-4, 0.912 µM (active). In addition, the GI50 with HCT-15 was 1.38 µM; in the test with Malme-3M it was 1.27 µM (inactive); in the test with ACHN, 1.88 µM (inactive).
Consider `CC1(C)C=C(N2CCN(C3=CC(C)(C)NC(C)(C)C3)CC2)CC(C)(C)N1`, for which the GI50 in the test with UO-31, in the test with UACC-257, in the test with A498, with HT-29, with NCI-H23 and with IGROV-1 was > 100 µM (inactive) each time. Moreover, the GI50 with HCT-116, in the test with NCI-H522, in the test with HCC 2998, with SK-MEL-28, in the test with SK-OV-3 and in the test on HOP-62 was > 100 µM (inactive) each time. For the same compound, the GI50 is > 100 µM (inactive) in the test on OVCAR-8; > 100 µM (inactive) in the test on OVCAR-4; greater than 100 µM in the test on HCT-15; > 100 µM (inactive) with HL-60; > 100 µM (inactive) with ACHN.
For the compound `COC(=O)C1=C(c2cc(OC)c(OC)c(OC)c2)OC(c2cc(OC)c(OC)c(OC)c2)C1` (centres undefined), the GI50 with UO-31 was 12.3 µM (inactive); with UACC-257, 23.9 µM (inactive); in the test on A498, 24.1 µM (inactive); in the test with HT-29, 24.3 µM (inactive); in the test with NCI-H23, 19.5 µM (inactive); with IGROV-1, 20.1 µM (inactive). In addition, the GI50 in the test with HCT-116 is 17 µM (inactive); with COLO 205, 16.4 µM (inactive); in the test on HCC 2998, 20.1 µM (inactive); in the test with SK-MEL-28, 53.1 µM (inactive); in the test with SK-OV-3, 25.6 µM (inactive); in the test with HOP-62, 37.8 µM (inactive). Also, the GI50 in the test on OVCAR-8 was 32.1 µM (inactive); with OVCAR-4, 12 µM (inactive); with HCT-15, 22.7 µM; in the test with Malme-3M it was 31.3 µM (inactive); with ACHN, 20.2 µM (inactive).
Consider `Cc1ccc(/C=N\NC2c3cc(Cl)ccc3Nc3nc(O)nc(C)c32)cc1` (centres undefined), for which the GI50 with UO-31 was > 100 µM (inactive); in the test with UACC-257 it was 88.9 µM (inactive); in the test on HT-29, > 100 µM (inactive); in the test on NCI-H23, > 100 µM (inactive); in the test with IGROV-1, 84.3 µM (inactive); with HCT-116, 46.8 µM (inactive). Moreover, the GI50 is 58.1 µM (inactive) in the test on COLO 205; > 100 µM (inactive) with NCI-H522; 95.7 µM (inactive) in the test with HCC 2998; > 100 µM (inactive) in the test on SK-MEL-28; > 100 µM (inactive) in the test on SK-OV-3; > 100 µM (inactive) in the test on HOP-62. The GI50 with OVCAR-8 was 72.6 µM (inactive); in the test with HL-60, 43.3 µM (inactive); in the test with Malme-3M, > 100 µM (inactive); in the test with ACHN, > 100 µM (inactive).
As for `COc1ccc(Cn2c(C)nc3c2C(=O)c2ccccc2C3=O)cc1`, the GI50 was 10.5 µM (inactive) in the test with UO-31; 10.4 µM (inactive) in the test on UACC-257; 4.94 µM (inactive) in the test on HT-29; 7 µM (inactive) in the test on NCI-H23; 9.86 µM (inactive) with IGROV-1; 3.74 µM (inactive) in the test on HCT-116. Moreover, the GI50 in the test on COLO 205 is 9.02 µM (inactive); in the test with NCI-H522, 6.01 µM (inactive); in the test on HCC 2998 it was 18.8 µM (inactive); in the test with SK-MEL-28, 21 µM (inactive); in the test with SK-OV-3 it was 14.8 µM (inactive); with HOP-62, 11.6 µM (inactive). The GI50 was 7.01 µM (inactive) in the test on OVCAR-8; 15.5 µM (inactive) in the test with OVCAR-4; 1.72 µM with HCT-15; 4.17 µM (inactive) in the test with HL-60; 9.46 µM (inactive) with Malme-3M; 10.3 µM (inactive) in the test on ACHN.
`COc1ccc2c(c1)[n+]([O-])c(C(=O)CC(=O)C(=O)Nc1cccc(C)c1C)c(C)[n+]2[O-]`: the GI50 in the test on UO-31, in the test with UACC-257, in the test on HT-29, in the test on NCI-H23, with IGROV-1 and with HCT-116 was > 100 µM (inactive) in each case. Further, the GI50 in the test on NCI-H522, in the test with HCC 2998, in the test with SK-MEL-28, with SK-OV-3, in the test with HOP-62 and in the test with OVCAR-8 was > 100 µM (inactive) throughout. For the same compound, the GI50 is > 100 µM (inactive) in the test with OVCAR-4; greater than 100 µM in the test on HCT-15; > 100 µM (inactive) in the test with HL-60; > 100 µM (inactive) with Malme-3M; > 100 µM (inactive) in the test on ACHN.
As for `O=C1OC(Cc2ccccc2)(N2CCCC2=O)C1c1ccccc1` (centres undefined), the GI50 in the test on UO-31 was > 100 µM (inactive); with UACC-257, > 100 µM (inactive); in the test on A498, 4.95 µM (inactive); in the test with HT-29 it was > 100 µM (inactive); with NCI-H23, 70.5 µM (inactive); with HCT-116 it was 53.2 µM (inactive). For the same compound, the GI50 in the test with COLO 205 was > 100 µM (inactive); in the test with NCI-H522, 48.2 µM (inactive); in the test with SK-MEL-28, > 100 µM (inactive); with SK-OV-3, 73.1 µM (inactive); in the test on HOP-62, > 100 µM (inactive); in the test on OVCAR-8 it was > 100 µM (inactive). Also, the GI50 was > 100 µM (inactive) in the test with OVCAR-4, 43 µM (inactive) in the test with HL-60, > 100 µM (inactive) with Malme-3M and 75.2 µM (inactive) in the test with ACHN.
For `CCOC(=O)/C(=C\c1ccc(OCc2ccccc2)c(OC)c1)C(=O)c1ccccc1`, the GI50 was 18.1 µM (inactive) with UO-31; > 10 µM (inactive) in the test on UACC-257; 19.3 µM (inactive) in the test with NCI-H23; 29.7 µM (inactive) with IGROV-1; 17.5 µM (inactive) in the test with HCT-116; 30.8 µM (inactive) in the test with COLO 205. The GI50 with NCI-H522 was 17.7 µM (inactive); with HCC 2998 it was 36.1 µM (inactive); in the test with SK-MEL-28 it was 14.6 µM (inactive); in the test on SK-OV-3, 64.9 µM (inactive); with HOP-62, 18.9 µM (inactive); with OVCAR-8, > 10 µM (inactive). The GI50 in the test on OVCAR-4 is 36 µM (inactive); in the test on HCT-15, 20.4 µM; in the test on HL-60, 20.1 µM (inactive); in the test with Malme-3M, 16.7 µM (inactive); with ACHN, 18.1 µM (inactive).
Turning to `CC(CC[C@@H](C)C1CCC2[C@@H]3CC(O)C4CC(O)[C@@H](O)C[C@]4(C)C3CC[C@@]21C)C(C)(C)C` (some centres undefined), the GI50 in the test with UO-31, in the test on UACC-257, in the test with A498, in the test on HT-29, with NCI-H23 and in the test with IGROV-1 was > 100 µM (inactive) throughout. For the same compound, the GI50 in the test on HCT-116, in the test with COLO 205, in the test on HCC 2998, in the test with SK-MEL-28, in the test with SK-OV-3 and with HOP-62 was > 100 µM (inactive) throughout. The GI50 was > 100 µM (inactive) in the test with OVCAR-8; > 100 µM (inactive) with OVCAR-4; greater than 100 µM in the test on HCT-15; > 100 µM (inactive) in the test with HL-60; > 100 µM (inactive) in the test with Malme-3M; > 100 µM (inactive) with ACHN.
